From patent US20210002725A1, “METHODS FOR THE DIAGNOSIS OF METABOLIC DISORDERS USING EPIMETABOLIC SHIFTERS, MULTIDIMENSIONAL INTRACELLULAR MOLECULES, OR ENVIRONMENTAL INFLUENCES” (Berg LLC, priority 2009, published 2021) come the findings set out here.

One assay deals with IDH1. The assay is described as follows: Western blot of Isocitrate Dehydrogenase-1 levels in cells treated with Coenzyme Q10. The format is cell-based, human. On the procedure: The whole cell pellets were resuspended one at a time in 1 mL of C7 buffer and transferred to labeled 15 mL tubes. The samples were then sonicated in the cold room on ice using 6 sonic pulses with the setting at #14. The samples were spun for a short time to 2500 g after sonication and the samples transferred to 2 ml tubes. The pH was verified of each sample (pH should be 9.0) using the foam remaining in the […] sample tubes.
Alkylation and reduction of samples was performed for each sample by adding 10 ul of 1M acrylamide, 25 ul of tributylphoshene and incubation for 90 mins with intermittent mixing. After incubation, 10 ul of 1M DTT was added and the tubes were spun at 20,000 g at 20 deg C. for 10 minutes and transferred the supernatant to labeled Amicon Ultra centrifugal filter units with a 10 k cut off (Millipore catalog #UFC 801024). The samples were spun for 15 minutes at 2500 g in 2 intervals. The conductivity was measured for Chaps alone as well as the samples using a conductivity meter. If the conductivity of samples is high, then 1 ml of chaps was added for buffer exchange and spun again at 2500 g until the volume was down to 250 ul. When the conductivity was 200 or less the samples were spun in 5 min intervals at 2500 g until the volume of the supernatant was between 150-100 ul. The sample supernatants were transferred to eppendorf tubes and Bradford assay was performed using BSA as standard.
The samples were processed as per standard protocols as described above and the amount of protein in each of the samples was determined by Bradford assay. Sample volumes equivalent to 10 ug of protein were prepared as shown below with Lamelli Loading dye (LDS) and MilliQ water were run on a 4-12% Bis-Tris Novex NuPAGE gel (Invitrogen, cat #NP0323Box)
The gels were run for 50 minutes using 1×MOPS buffer using a NOVEX Xcell Surelock system at 200 V. The gels were then transferred for 1 hour using a NOVEX Xcell Surelock wet transfer protocol at 30 V. The blots were stained with Simply Blue Safestain from Invitrogen (LC6065).
After transfer each of the blots was placed in between 2 Whatman Filter papers and dried for 15-20 minutes. After drying the blots were labeled with the date, the type of samples and either blot 1 or blot 2 using a HB pencil. The molecular weight markers were outlined with the pencil and with single lines for the blue and a doublet for the colored markers. The blots were activated with methanol for 5 seconds, washed with water for 5 minutes, and TBST for 15 minutes. The blots were blocked for 1 hour with 5% blocking reagent in TBS-T at room temperature and then washed 3 times with TBS-T (1×-15′; 2×5′ each). Blot 1 was probed with the primary antibody for IDH1 (Cell Signaling #3997) in TBST with 5% BSA (at 1:1000 dilutions) and blot 2 with the rabbit polyclonal antibody for ATP Citrate Lyase in 5% BSA (Cell Signaling #4332) at 1:1000 dilution by incubation overnight at 4 deg C. with shaking. After the overnight incubation with primary antibodies, the blots were washed 3 times with TBS-T (1×-15′; 2×5′ each) and probed with the secondary antibody (antirabbit; 1:10,000 dilution) for 1 hon the orbital tilting shaker at room temperature. After 1 h of incubation with secondary antibodies, the blots were washed 3 times with TBS-T (1×-15′; 2×5′ each) and then incubated with ECF reagent for 5 mins and then each blot scanned with 5100 Fuji Laser scanner at 25 uM resolution, 16 bit, green laser, at 400V and at 500 V.
The samples were processed and run on a 4-12% Bis-Tris Novex NuPAGE gel as described above. The gels were run, transferred and stained essentially as described above.
After transfer the blot was dried for 15-20 minutes, activated with methanol for 5 seconds, washed with water for 5 minutes, and TBST for 15 minutes. The blot was blocked for 1 hour with 5% blocking reagent in TBS-T at room temperature and then washed 3 times with TBS-T (1×-15′; 2×5′ each). […]

The test system of another assay is Bcl2. The experiment in a line: Bcl2 level after administration of CoQ-10 in the presence of VEGF. Type of assay: cell-based. The text has this: The term “Multidimensional Intracellular Molecule (MIM)”, is an isolated version or synthetically produced version of an endogenous molecule that is naturally produced by the body and/or is present in at least one cell of a human. A MIM is characterized by one or more, two or more, three or more, or all of the following functions. MIMs are capable of entering a cell, and the entry into the cell includes complete or partial entry into the cell, as long as the biologically active portion of the molecule wholly enters the cell. MIMs are capable of inducing a signal transduction and/or gene expression mechanism within a cell. MIMs are multidimensional in that the molecules have both a therapeutic and a carrier, e.g., drug delivery, effect. MIMs also are multidimensional in that the molecules act one way in a disease state and a different way in a normal state. […] Preferably, MIMs selectively act in cells of a disease state, and have substantially no effect in (matching) cells of a normal state. Preferably, MIMs selectively renders cells of a disease state closer in phenotype, metabolic state, genotype, mRNA/protein expression level, etc. to (matching) cells of a normal state.

For assay [1], the system named is SCC cells. The following applies: 100 μM Q10; 6 and/or 24 hr.
Assay [2] relates to SCC cells. The assay is described as follows: Real-time PCR Heat Shock Protein Array. The format is cell-based. The following applies: 100 μM Q10. The text has this: The control cells were untreated cells.
Heat Shock Arrays were run for SCC cells and the data of regulated genes is summarized below in Table 13.
On the technique in general: Quantitative PCR measures a nucleic acid by following its amplification.

Structures are written as SMILES. Entries after “also recorded” stand apart in the source; their conditions may differ.

For `COC1=C(OC)C(=O)C(C/C=C(\C)CC/C=C(\C)CC/C=C(\C)CC/C=C(\C)CC/C=C(\C)CC/C=C(\C)CC/C=C(\C)CC/C=C(\C)CC/C=C(\C)CCC=C(C)C)=C(C)C1=O` [Q10, Coenzyme Q10], the “expression of IDH1” value in the assay on IDH1 (HASMC human aortic smooth muscle cells) is given as “did not demonstrate significant changes”; with IDH1 (HDFa primary human derived fibroblasts) it was “did not demonstrate significant changes”; with IDH1 (HepG2 cells) it was “increased expression”; with IDH1 (MCF-7 cells), “increased expression”; with IDH1 (PaCa-2 cells) it was “increased expression”; in the assay on IDH1 (SCC25 cell lines) it was “moderate increase”. Further, the “expression of IDH1” value in the assay on IDH1 (SKMEL28 cells) was “increased expression”; in the assay on IDH1 (nFIB fibroblasts), “did not demonstrate significant changes”. Also, the “IDH1 Average Normalized Intensity” value in the assay on IDH1 (HDFa, 24 h, 100 μM) is on record as 600. Besides, the “IDH1 Normalized Intensity” value in the assay on IDH1 (PACA2, 5 g, 48 h, 100 μM) stood at 860. For the same compound, in the assay with Bcl2 (melanoma cell, in the presence of VEGF), the “level of Bcl2” value is listed as “decreased level of Bcl2”. Moreover, the “levels of Bcl2” value in the assay with Bcl2 (normal fibroblast, co-administration with VEGF) was “no effect”. Further, the “Response (direction of protein spot change)” value in the assay on SCC cells [1] is on record as “Increase; also recorded: hr, decrease”. Moreover, the “Regulation (mRNA) at 6 hours” value with SCC cells [2] was “Down regulated”. Besides, the “Regulation (mRNA) at 24 hours” value with SCC cells [2] is listed as “Down regulated”.
